Reference: patent publication EP4631940A1, “COMPOUND TARGETING PAN-KRAS PROTEIN DEGRADATION AGENT AND USE THEREOF” (Betta Pharmaceuticals Co., Ltd., priority 2022, dated 2024)
Read-outs that look alike come from different tables or passages of the source.

What was measured:
KRAS G12D [1] = molecular target: T1, KRAS G12D (Homo sapiens, UniProt P01116, G12D); assay: cell-based; conditions: AGS
KRAS G12D [2] = molecular target: T1, KRAS G12D
AGS = assay: Cell proliferation experiment (CellTiter-Glo); assay type: cell-based; conditions: read-out: IC50(nM) AGS
SW620 = assay: Cell proliferation experiment (CellTiter-Glo); assay type: cell-based; conditions: read-out: IC50(nM) SW620
[3] = SW620, KRAS mutation type G12V, 96 h incubation
[4] = AGS, KRAS mutation type G12D, 96 h incubation

IC50 (SW620; [3])	IC50 (AGS; [4])	Compound	IC50 (AGS)	also measured
–	–	CCc1c(F)ccc2cc(O)cc(-c3ncc4c(N5CCC[C@@](C)(O)C5)nc(OCCN5CCC(CCOc6cc([C@H](C(=O)N7C[C@H](O)C[C@H]7C(=O)N[C@@H](C)c7ccc(-c8scnc8C)cc7)C(C)C)on6)CC5)nc4c3F)c12 [Compound 79]	–	Dmax (KRAS G12D [1]): 95%; DC50 (KRAS G12D [2]): 44 nM; IC50 (AGS; Homo sapiens, AGS, 96 h): 44 nM
–	–	CCc1c(F)ccc2cc(O)cc(-c3ncc4c(N5CCC[C@@](C)(O)C5)nc(OCCN5CCC(COc6cc([C@H](C(=O)N7C[C@H](O)C[C@H]7C(=O)N[C@@H](C)c7ccc(-c8scnc8C)cc7)C(C)C)on6)CC5)nc4c3F)c12 [Compound 80]	–	Dmax (KRAS G12D [1]): 95%; DC50 (KRAS G12D [2]): 40 nM; IC50 (AGS; Homo sapiens, AGS, 96 h): 63 nM
–	–	C=C1CN2[C@H](COC(=O)N3CCC4(CC3)CC(C(=O)N[C@H](C(=O)N3C[C@H](O)C[C@H]3C(=O)N[C@@H](C)c3ccc(-c5scnc5C)cc3)C(C)(C)C)C4)CC[C@@]2(COc2nc(N3CCC[C@@](C)(O)C3)c3cnc(-c4cc(O)cc5ccc(F)c(CC)c45)c(F)c3n2)C1 [Compound 140]	28 nM	IC50 (SW620): 167 nM
–	–	CCc1c(F)ccc2cc(O)cc(-c3ncc4c(N5CCC[C@@](C)(O)C5)nc(OCC5(CN6CCC(c7cc([C@H](C(=O)N8C[C@H](O)C[C@H]8C(=O)N[C@@H](C)c8ccc(-c9scnc9C)cc8)C(C)C)on7)CC6)CC5)nc4c3F)c12 [Compound 147]	16 nM	DC50 (KRAS G12D [2]): 24 nM; Dmax (%) (KRAS G12D [2]): 95%
35 nM	6 nM	CCc1c(F)ccc2cc(O)cc(-c3ncc4c(N5CCC[C@@](C)(O)C5)nc(OCC5(CN6CCN(C(=O)c7cnc(-c8cn([C@H](C(=O)N9C[C@H](O)C[C@H]9C(=O)N[C@@H](C)c9ccc(-c%10scnc%10C)cc9)C(C)C)nn8)cn7)CC6)CC5)nc4c3F)c12 [Compound 173]	–	–
70 nM	26 nM	CCc1c(F)ccc2cc(O)cc(-c3ncc4c(N5CCC[C@@](C)(O)C5)nc(OCC5(CN6CCN(CCOc7cc([C@H](C(=O)N8C[C@H](O)C[C@H]8C(=O)N[C@@H](C)c8ccc(-c9scnc9C)cc8)C(C)C)on7)CC6)CC5)nc4c3F)c12 [Compound 175]	–	–
38 nM	11 nM	CCc1c(F)ccc2cc(O)cc(-c3ncc4c(N5CCC[C@@](C)(O)C5)nc(OCC5(CN6CCC(Oc7cnc(-c8cn([C@H](C(=O)N9C[C@H](O)C[C@H]9C(=O)N[C@@H](CC(=O)NC)c9ccc(-c%10scnc%10C)cc9)C(C)C)nn8)cn7)CC6)CC5)nc4c3F)c12 [Compound 190, (2S,4R)-1-((S)-2-(4-(5-(1-((((7-(8-ethyl-7-fluoro-3-hydroxynaphthalen-1-yl)-8-fluoro-4-(((R)-3-hydroxy-3-methylpiperidin-1-yl)pyrido[4,3-d]pyrimidin-2-yl)oxy)methyl)cyclopropyl)methyl)piperidin-4-yl)oxy)-2-ylpyrazin-1H-1,2,3-triazol-1-yl)-3-methylbutanoyl)-4-hydroxy-N-((S)-3-(methylamino)-1-(4-(4-methylthiazol-5-yl)phenyl)-3-oxopropyl)pyrrolidine-2-carboxamide]	–	–
18 nM	4.4 nM	CCc1c(F)ccc2cc(O)cc(-c3ncc4c(N5CCC[C@@](C)(O)C5)nc(OCC5(CN6CCC(N7CCC(c8cnc(-c9cn([C@H](C(=O)N%10C[C@H](O)C[C@H]%10C(=O)N[C@@H](C)c%10ccc(-c%11scnc%11C)cc%10)C(C)C)nn9)cn8)CC7)CC6)CC5)nc4c3F)c12 [Compound 195]	–	–
15 nM	4 nM	CCc1c(F)ccc2cc(O)cc(-c3ncc4c(N5CCC[C@@](C)(O)C5)nc(OCC5(CN6CCC(N7CCN(c8cnc(-c9cn([C@H](C(=O)N%10C[C@H](O)C[C@H]%10C(=O)N[C@@H](C)c%10ccc(-c%11scnc%11C)cc%10)C(C)C)nn9)cn8)CC7)CC6)CC5)nc4c3F)c12 [Compound 196, (2S,4R)-1-((S)-2-(4-(5-(4-(1-(((7-(8-ethyl-7-fluoro-3-hydroxynaphthalen-1-yl)-8-fluoro-4-(((R)-3-hydroxy-3-methylpiperidin-1-yl)pyrido[4,3-d]pyrimidin-2-yl)oxy)methyl)cyclopropyl)methyl)piperidin-4-yl)piperazin-1-yl)pyrazin-2-yl)-1H-1,2,3-triazol-1-yl)-3-methylbutanoyl)-4-hydroxy-N-(((S)-1-(4-(4-methylthiazol-5-yl)phenyl)ethyl)pyrrolidine-2-carboxamide]	–	–
32 nM	6.1 nM	CCc1c(F)ccc2cc(O)cc(-c3ncc4c(N5CCC[C@@](C)(O)C5)nc(OCC5(CN6CCN(C7CCN(c8cnc(-c9cn([C@H](C(=O)N%10C[C@H](O)C[C@H]%10C(=O)N[C@@H](C)c%10ccc(-c%11scnc%11C)cc%10)C(C)C)nn9)cn8)CC7)CC6)CC5)nc4c3F)c12 [Compound 197]	–	–
21 nM	6.9 nM	CCc1c(F)ccc2cc(O)cc(-c3ncc4c(N5CCC[C@@](C)(O)C5)nc(OCC5(CN6CCC(OCc7cnc(-c8cn([C@H](C(=O)N9C[C@H](O)C[C@H]9C(=O)N[C@@H](C)c9ccc(-c%10scnc%10C)cc9)C(C)C)nn8)cn7)CC6)CC5)nc4c3F)c12 [Compound 198]	–	–
46 nM	13 nM	CCc1c(F)ccc2cccc(-c3ncc4c(N5CCC[C@@](C)(O)C5)nc(OCC5(CN6CCC(Oc7cnc(-c8cn([C@H](C(=O)N9C[C@H](O)C[C@H]9C(=O)N[C@@H](C)c9ccc(-c%10scnc%10C)cc9)C(C)C)nn8)cn7)CC6)CC5)nc4c3F)c12 [Compound 201]	–	–
54 nM	15 nM	CCc1c(F)ccc2cc(O)cc(-c3ncc4c(N5CCCC(C)(O)C5)nc(OCC5(CN6CCN(Cc7cc(-c8cn([C@H](C(=O)N9C[C@H](O)C[C@H]9C(=O)N[C@@H](C)c9ccc(-c%10scnc%10C)cc9)C(C)C)nn8)n(C)n7)CC6)CC5)nc4c3F)c12 (stereo partly drawn) [Compound 202]	–	–
–	–	(2S,4R)-1-((2S)-2-(4-(5-(1-(4-((1-(((7-(8-ethyl-7-fluoro-3-hydroxynaphthalen-1-yl)-8-fluoro-4-(( R)-3-hydroxy-3-methylpiperidin-1-yl)pyrido[4,3-d]pyrimidin-2-yl)oxy)methyl)cyclopropyl)meth yl)piperidin-1-yl)ethyl)piperidin-2-yl)-1H-1,2,3-triazol-1-yl)-3-methylbutanoyl)-4-hydroxy-N-(( S)-1-(4-(4-methylthiazol-5-yl)phenyl)ethyl)pyrrolidine-2-carboxamide [Compound 194]	5.5 nM	IC50 (SW620): 26 nM
59 nM	8 nM	(2S,4R)-1-((S)-2-(4-(5-(2-(4-((1-((7-(8-ethyl-7-fluoro-3-hydroxynaphthalen-1-yl)-8-fluoro-4-((R )-3-hydroxy-3-methylpiperidin-1-yl)pyrido[4,3-d]pyrimidin-2-yl)oxy)methyl)cyclopropyl)methy l)piperazin-1-yl)-2-oxyethyl)pyrazin-2-yl)-1H-1,2,3-triazol-1-yl)-3-methylbutanoyl)-4-hydroxy-N-((S)-1-(4-(4-methylthiazol-5-yl)phenyl)ethyl)pyrrolidine-2-carboxamide [Compound 174]	–	–
–	–	(2S,4R)-1-((S)-2-(4-(5-(2-(4-((1-(((7-(8-ethyl-7-fluoro-3-hydroxynaphthalen-1-yl)-8-fluoro-4-(( R)-3-hydroxy-3-methylpiperidin-1-yl)pyrido[4,3-d]pyrimidin-2-yl)oxy)methyl)cyclopropyl)meth yl)piperazin-1-yl)ethyl)pyrazin-2-yl)-1H-1,2,3-triazol-1-yl)-3-methylbutanoyl)-4-hydroxy-N-((S )-1-(4-(4-methylthiazol-5-yl)phenyl)ethyl)pyrrolidine-2-carboxamide [Compound 191]	3.1 nM	IC50 (SW620): 12 nM
20 nM	4.6 nM	(2S,4R)-1-((S)-2-(4-(5-(3-(1-(((7-(8-ethyl-7-fluoro-3-hydroxynaphthalen-1-yl)-8-fluoro-4-((R)-3 -hydroxy-3-methylpiperidin-1-yl)pyrido[4,3-d]pyrimidin-2-yl)-3-methylbutanoyl)-4-hydroxy-N-((S)-1-(4-(4-methylthiazol-5-yl)phenyl)ethyl)pyrrolidine-2-carboxamide [Compound 200]	–	–
17 nM	3.2 nM	(2S,4R)-1-((S)-2-(4-(5-(3-(4-((1-((7-(8-ethyl-7-fluoro-3-hydroxynaphthalen-1-yl)-8-fluoro-4-((R )-3-hydroxy-3-methylpiperidin-1-yl)pyrido[4,3-d]pyrimidin-2-yl)oxy)methyl)cyclopropyl)methy l)piperazin-1-yl)azetidin-1-yl)pyrazin-2-yl)-1H-1,2,3-triazol-1-yl)-3-methylbutanoyl)-4-hydroxy -N-((R)-2-hydroxy-1-(4-(4-methylthiazol-5-yl)phenyl)ethyl)pyrrolidine-2-carboxamide [Compound 192]	–	–
–	–	(2S,4R)-1-((S)-2-(4-(5-((1-((1-(((7-(8-ethyl-7-fluoro-3-hydroxynaphthalen-1-yl)-8-fluoro-4-((R)-3-hydroxy-3-methylpiperidin-1-yl)pyrido[4,3-d]pyrimidin-2-yl)oxy)methyl)cyclopropyl)methyl) piperidin-4-yl)methyl)piperazin-2-yl)-1H-1,2,3-triazol-1-yl)-3-methylbutanoyl)-4-hydroxy-N-((S )-1-(4-(4-methylthiazol-5-yl)phenyl)ethyl)pyrrolidine-2-carboxamide [Compound 193]	7.3 nM	IC50 (SW620): 24 nM
–	–	(7-(8-ethyl-7-fluoro-3-hydroxynaphthalen-1-yl)-8-fluoro-4-(R)-3-hydroxy-3-methylpiperidin-1-y l)pyrido[4,3-d]pyrimidin-2-yl)oxy)methyl)-6-methylenehexahydro-1H-pyrrolizin-3-yl)methyl ((3-(1-((S)-1-(2S,4R)-4-hydroxy-2-(S)-1-(4-methylthiazol-5-yl)phenyl)ethyl)carbamoyl)pyrrolidi n-1-yl)-3-methyl-1-oxobutan-2-yl)-1H-1,2,3-triazol-4-yl)bicyclo[1.1.1]pentan-1-yl)methyl)carba mate [Compound 126]	32 nM	IC50 (SW620): 246 nM; DC50 (KRAS G12D [2]): 23 nM; Dmax (%) (KRAS G12D [2]): 95%
